Data on 15 compounds can be found in patent US20040006236A1, “Diaminopropionic acid derivatives” (priority 1999, published 2004).

For one assay, the system named is C57BI/6 mice. Put plainly: Delayed type hypersensitivity in mice (mBSA paw swelling). The note with it: compared to distilled water pumps. It is filed as in vivo. The method, then: Sensitization: On day 0, adult female C57BI/6 mice (20-25 g) received 50 μl each of a 1:1 mixture of 10 mg/ml methylated bovine serum albumin (mBSA) in phosphate buffered saline (PBS) and complete Freund's adjuvant (CFA) intradermally at two sites on shaved bellies (total volume 100 μl per mouse). Control mice received an equal volume of a PBS/CFA mixture (unsensitized).
Challenge: On day 7, the mice received 20 μl I of 5 mg/ml mBSA in PBS injected into the right hind paw. The contralateral left paw of each mouse was injected with an identical volume of PBS. After 24 hours, the paw swelling of both the hind feet of all mice was measured with microcalipers. To determine the paw swelling response, measurements of the left paw were subtracted from that of the right paw for each individual mouse.
At the time of challenge, anaesthetized mice were implanted on their backs with Alzet osmotic minipumps which delivered a constant volume per hour of the inhibitors (e.g. Example 226) subcutaneously. The pumps delivered a volume 200 μl over a period of 1 day. Different doses of the compounds were tested viz. 850, 250 and 85 mg/kg/day. The inhibitors were formulated in distilled water. Control mice received pumps containing distilled water. For antibody treatment groups, mice received 200 μg of anti-mouse LFA-1 (Mi7), anti-mouse Mac-1 (M1/70) or control rat IgG intraperitoneally on the day of challenge.
In table 10, the swelling response in antibody-treated animals is compared to the swelling response in rat IgG-treated animals. The swelling response in compound-treated animals is compared to the swelling-response in mice that had received pumps containing distilled water

The test system of the next assay is BALB/c mice. Put plainly: Croton oil-induced dermatitis in mice (ear swelling). It is filed as in vivo. Particulars: compared to distilled water pumps. The method, then: Adult female BALB/c mice (20-25 g) received 10 μl of 20 mg/ml of croton oil in 80% acetone:20% olive oil vehicle on each side of the right ear (total of 20 μl per mouse). All the mice received a similar volume of the acetone/olive oil vehicle on the contralateral left ear. Negative control mice received vehicle on both ears. Six hours thereafter, the ear swelling on both ears was measured with microcalipers. The ear swelling response was determined by subtraction of the swelling measurements of the left ear from that of the right ear for each individual mouse.
Inhibitors were administered to mice via 3 day Alzet osmotic minipumps. Pumps containing different concentrations of the inhibitors were implanted on the backs of anaesthetized mice 2 days prior to croton oil application. Additional mice received an equal volume of distilled water in pumps. For mice receiving antibodies, anti-CD18 antibody (HB226) or control rat IgG were administered i.p. at 200 μg per mouse 18 hours prior to croton oil application.
In table 11, the swelling response in antibody-treated animals is compared to the swelling response in rat IgG-treated animals. The swelling response in compound-treated animals is compared to the swelling-response in mice that had received pumps containing distilled water

Assay [1] has as its system cell-surface Mac-1 adhesion to immobilized fibrinogen (HL-60 cells). The assay can be described thus: Mac-1/Fibrinogen cell-based screening assay. On the set-up: species or system human. Particulars: Homo sapiens, HL-60, HL-60 cells; read-out: Mac-1/Fgn Cell based Assay IC50. Put shortly:
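Wells coated with fibrinogen and blocked with PVP. Labeled HL-60 cells (2×10^6 cells/mL in RPMI/0.05% BSA/0.2 mM MnCl2) preincubated with DMSO-diluted compounds for 10 min at 37° C, then left to adhere 30 min at 37° C/5% CO2. Unbound cells washed off with TBS.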

The test system of assay [2] is Mac-1 and LFA-1-mediated neutrophil binding to immobilized ICAM-1. The assay can be described thus: Neutrophil (Mac-1 and LFA-1)/ICAM-1 cell-based screening assay. Particulars: human neutrophils. How it is done: Both Mac-1 and LFA-1 are expressed on the cell surface of neutrophils. The ability of antagonists to inhibit Mac-1 and LFA-1-mediated neutrophil binding to immobilized ICAM-1 was quantitated by a cell based assay. Typically, fusion protein consisting of the entire extracellular domain of human ICAM-1 and the Fc domain of human IgG (5dICAM-Ig) was coated onto 96 well microtiter plates (1 μg in 100 μL TBS) overnight at 4° C. The plates were then blocked with 150 μL of 10% PVP in TBS for 1 h at 37° C. Plates were washed 3 times (150 μL each) with TBS. Human neutrophils were purified from whole blood from healthy volunteers using LSM (ICN). Cells (8×10^6/mL) were fluorescently labeled with 6-carboxyfluorescein (100 μg/mL) for 40 min in IMDM/1 mM MgCl2/1.2 mM CaCl2 as described in Example 287. Cells (8×10^6/mL) were stimulated with f-Met-Leu-Phe (10 μM) for 5 min at room temperature just prior to being used in the assay, and diluted to 2×10^6 cells/mL with RPMI/0.05% BSA/0.2 mM MnCl2. Stock solutions (10 mM) of test compounds were diluted to 2.5 mM with DMSO. A series of 1:4 dilutions in DMSO were performed to achieve a concentration range of 38.2 nM-2.5 mM. Each sample was further diluted 50-fold with RPMI/0.05% BSA/0.2 mM MnCl2. Equal volumes of labeled cells were then added to assay tubes containing diluted compound. Final concentrations of compound tested in the assay ranged from 0.38 nM-25 μM with a cell concentration of 1×10^6 per mL. Cells were incubated for 10 min at 37° C. with gentle shaking, then dispensed (100 μL per well) onto ICAM-1 coated plates and incubated for 30 min at 37° C./5% CO2. Unbound cells were washed and plates were read on a Cytofluor™ 2300 (Millipore) as described in Example 384.

Regarding `O=C(NC[C@H](NC(=O)c1c(F)cccc1Cl)C(=O)O)c1ccc2[nH]nnc2c1` [Example 226], the “Percentage inhibition of paw swelling in response to challenge with methylated bovine serum albumin” value in the assay with C57BI/6 mice (1 μM, s.c. osmotic minipump) is on record as −2%; in the assay with C57BI/6 mice (3 μM circulating serum level (250 mg/kg/day, s.c. osmotic minipump)), 52%; in the assay on C57BI/6 mice (9 μM circulating serum level (850 mg/kg/day, s.c. osmotic minipump)), 77%. Moreover, the “Percentage inhibition of ear swelling in response to croton oil application” value in the assay on BALB/c mice (1 μM, osmotic minipump) worked out at 8%; with BALB/c mice (2 μM circulating serum level (64 mg/kg/day, osmotic minipump)), 48%; in the assay with BALB/c mice (4 μM circulating serum level (250 mg/kg/day, osmotic minipump)) it was 62%.

Turning to `O=C(NCc1cccc(O)c1)c1ccc(C(=O)N[C@@H](CNC(=O)c2cccs2)C(=O)O)c(Cl)c1` [Example 303, N-[2-chloro-4-[[[(3-hydroxyphenyl)methyl]amino]carbonyl]benzoyl]-3-(thiophene-2-carbonyl)amino-L-alanine], the IC50 in assay [1] is 8.7 nM; in assay [2], 16 nM.

`Cc1cc(C(=O)NCc2cccc(O)c2)ccc1C(=O)N[C@@H](CNC(=O)c1cccs1)C(=O)O` [Example 323]: the IC50 in assay [1] stood at 26 nM; in assay [2] it was 61 nM.

As to `O=C(NCc1cccc2[nH]ncc12)c1ccc(C(=O)N[C@@H](CNC(=O)c2cccs2)C(=O)O)c(Cl)c1` [Example 327, N-[2-chloro-4-[[[(1H-indazol-4-yl)methyl]amino]carbonyl]benzoyl]-3-(thiophene-2-carbonyl)amino-L-alanine], the IC50 in assay [1] amounted to 18 nM; in assay [2], 20 nM.

For `Cc1cc(C(=O)NCc2cccc(O)c2)cc(C)c1C(=O)N[C@@H](CNC(=O)c1cccs1)C(=O)O` [Example 330], the IC50 is 6 nM in assay [1] and 6.7 nM in assay [2].

For the compound `Cc1cc(C(=O)N[C@H](C)c2cccc3ccccc23)cc(C)c1C(=O)N[C@@H](CNC(=O)c1cccs1)C(=O)O` [Example 333], the IC50 in assay [1] stood at 12 nM; in assay [2], 14 nM.

Turning to `Cc1cc(C(=O)NCc2cccc(O)c2)cc(C)c1C(=O)N[C@@H](CNC(=O)c1ccsc1)C(=O)O` [Example 336, N-[2,6-dimethyl-4-[[[(3-hydroxyphenyl)methyl]amino]carbonyl]benzoyl]-3-(thiophene-3-carbonyl)amino-L-alanine], the IC50 is 5.4 nM in assay [1] and 6.1 nM in assay [2].

As for `Cc1cc(C(=O)NCc2cccc(O)c2)cc(C)c1C(=O)N[C@@H](CNC(=O)c1cc(F)cc(F)c1)C(=O)O` [Example 337, N-[2,6-dimethyl-4-[[[(3-hydroxyphenyl)methyl]amino]carbonyl]benzoyl]-3-(3,5-difluorobenzoylamino)-L-alanine], the IC50 in assay [1] and in assay [2] was 12 nM each time.

Consider `Cc1cc(C(=O)NCc2cccc(O)c2)cc(Cl)c1C(=O)N[C@@H](CNC(=O)c1cccs1)C(=O)O` [Example 338, N-[2-chloro-4-[[[(3-hydroxyphenyl)methyl]amino]carbonyl]-6-methylbenzoyl]-3-[(thiophene-2-carbonyl)amino]-L-alanine], for which the IC50 is 2.2 nM in assay [1] and 3.9 nM in assay [2].

For `Cc1cc(C(=O)NCc2cccc(O)c2)cc(Cl)c1C(=O)N[C@@H](CNC(=O)c1ccsc1)C(=O)O` [Example 339, N-[2-chloro-4-[[[(3-hydroxyphenyl)methyl]amino]carbonyl]-6-methylbenzoyl]-3-[(thiophene-3-carbonyl)amino]-L-alanine], the IC50 was found to be 3.1 nM in assay [1] and 3 nM in assay [2].

As to `Cc1cc(C(=O)NCc2cccc(O)c2)cc(Cl)c1C(=O)N[C@@H](CNC(=O)c1cc(F)cc(F)c1)C(=O)O` [Example 340, N-[2-chloro-4-[[[(3-hydroxyphenyl)methyl]amino]carbonyl]-6-methylbenzoyl]-3-[(3,5-difluorobenzoyl)amino]-L-alanine], the IC50 turned out to be 6.2 nM in assay [1] and 4 nM in assay [2].

`O=C(NCc1cccc(O)c1)c1cc(Cl)c(C(=O)N[C@@H](CNC(=O)c2cccs2)C(=O)O)c(Cl)c1` [Example 342, N-[2,6-dichloro-4-[[[(3-hydroxyphenyl)methyl]amino]carbonyl]benzoyl]-3-[(thiophene-2-carbonyl)amino]-L-alanine]: the IC50 in assay [1] turned out to be 1 nM; in assay [2], 2.3 nM.

As to `O=C(NCc1cccc(O)c1)c1cc(Cl)c(C(=O)N[C@@H](CNC(=O)c2ccsc2)C(=O)O)c(Cl)c1` [Example 343, N-[2,6-dichloro-4-[[[(3-hydroxyphenyl)methyl]amino]carbonyl]benzoyl]-3-[(thiophene-3-carbonyl)amino]-L-alanine], the IC50 in assay [1] came to 1.7 nM; in assay [2] it was 1.9 nM.

On to `O=C(NCc1cccc(O)c1)c1cc(Cl)c(C(=O)N[C@@H](CNC(=O)c2cc(F)cc(F)c2)C(=O)O)c(Cl)c1` [Example 344, N-[2,6-dichloro-4-[[[(3-hydroxyphenyl)methyl]amino]carbonyl]benzoyl]-3-[(3,5-difluorobenzoyl)amino]-L-alanine], for which the IC50 in assay [1] was determined as 4.8 nM; in assay [2], 1.7 nM.

Regarding `O=C(NCc1cccc(O)c1)c1cc(Cl)c(C(=O)N[C@@H](CNC(=O)c2cc(O)cc(O)c2)C(=O)O)c(Cl)c1` [Example 345, N-[2,6-dichloro-4-[[[(3-hydroxyphenyl)methyl]amino]carbonyl]benzoyl]-3-(3,5-dihydroxybenzoylamino)-L-alanine], the IC50 in assay [1] is 0.3 nM; in assay [2] it was 0.1 nM.
